Tested on: wild type C. elegans
Assay: Longevity curves of C. elegans in the presence of the steroid sulfatase inhibitor
Type: in vivo
Conditions: for longevity (longevity curve) versus control population exposed to the inhibitor solvent (DMSO): 25° C., p=0.0139, n>100, FIG. 3
Experimental: In order to generate the longevity curves, the strains under study and their pertinent controls were first subjected to an egg preparation in order to prevent contaminations and synchronise them at the embryonic stage, and, subsequently, they were incubated at 16° C. In order to prevent interferences caused by physiological stresses resulting from this process, they were allowed to grow to the following generation. 5 or 6 L4 per plate were then transferred to 4 plates, and were once again incubated at 16° C. to L4, the stage selected to start the longevity curves.
On day zero, 120 L4 of each strain were transferred to new plates, 20 worms per plate, and incubated at the temperature at which the assay was subsequently performed, i.e. 25° C.
During the first week of the curves, the nematodes were transferred to new plates every 2 days, in order to prevent confusions with potential descendants. Subsequently, they were checked every 2 or 3 days, and those specimens that were lost or dead for non-physiological reasons were withdrawn from the study. The individuals were transferred to new plates every 5 days in order to maintain optimal growth conditions in the plates. The specimens were considered to be dead when they ceased to respond upon being softly touched with the platinum wire.
The longevity was studied in the presence of the steroid sulfatase inhibitor STX64 (SIGMA, S1950-5MG) diluted in DMSO at 5 μg/μl. […] The preparation and synchronisation of the nematodes until day=0 was the same as in the preceding case, the only difference being that the nematodes were transferred to fresh plates every two or three days until the curve was completed.
We used the GraphPad Prism 5 programme (Version 5.0a, for Mac OS X. 1992-2008 GraphPad Software, Inc.) in the survival curve mode to represent the longevity curves, and the Kaplan-Meier method was used to perform the statistical analysis thereof. […]

## NS(=O)(=O)Oc1ccc2c3c(c(=O)oc2c1)CCCCC3 [STX64, Irosustat]
C. elegans, FIG. 3
  effect of treatment on ageing: delayed ageing
Wild type population supplemented with 0.5 μg/ml
  longevity (longevity curve) versus control population exposed to the inhibitor solvent (DMSO): lives significantly longer
Wild type population supplemented with 1 μg/ml
  longevity (longevity curve) versus control population exposed to the inhibitor solvent (DMSO): lives significantly longer

Source: patent publication US20160361244A1, “USE OF THE INHIBITOR OF STEROID SULFATASES STX64 FOR TREATING AGING” (U[…] DE OLAVIDE, priority 2013, published 2016)
